The term EC50 denotes the midpoint of the concentration-response curve. Lower therefore signals an effect from little substance.

From ChEMBL document CHEMBL1127910, “Structural basis for the differential RXR & RAR activity of stilbene retinoid analogs” (Bioorg Med Chem Lett, 1994) come the findings set out here.

Experiment [1] deals with T1, Retinoic acid receptor gamma (Homo sapiens, UniProt P13631).
T1 sequence (P13631 whole entry): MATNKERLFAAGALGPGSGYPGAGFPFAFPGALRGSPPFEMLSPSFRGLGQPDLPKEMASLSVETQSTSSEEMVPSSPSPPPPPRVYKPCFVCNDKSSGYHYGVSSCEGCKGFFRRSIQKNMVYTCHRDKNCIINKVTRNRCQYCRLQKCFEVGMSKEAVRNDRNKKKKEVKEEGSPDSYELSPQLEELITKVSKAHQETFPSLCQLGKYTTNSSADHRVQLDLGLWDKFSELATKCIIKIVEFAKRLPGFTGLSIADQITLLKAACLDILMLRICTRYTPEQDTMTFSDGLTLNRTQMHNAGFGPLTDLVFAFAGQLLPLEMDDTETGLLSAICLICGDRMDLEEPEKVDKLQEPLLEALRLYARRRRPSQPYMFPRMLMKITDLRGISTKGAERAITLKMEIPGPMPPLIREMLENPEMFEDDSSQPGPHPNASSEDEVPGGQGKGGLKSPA
Put plainly: Transcriptional activation for RAR gamma receptor.

For experiment [2], the target named is T2, Retinoic acid receptor beta (Homo sapiens, UniProt P10826).
T2 sequence (P10826 whole entry): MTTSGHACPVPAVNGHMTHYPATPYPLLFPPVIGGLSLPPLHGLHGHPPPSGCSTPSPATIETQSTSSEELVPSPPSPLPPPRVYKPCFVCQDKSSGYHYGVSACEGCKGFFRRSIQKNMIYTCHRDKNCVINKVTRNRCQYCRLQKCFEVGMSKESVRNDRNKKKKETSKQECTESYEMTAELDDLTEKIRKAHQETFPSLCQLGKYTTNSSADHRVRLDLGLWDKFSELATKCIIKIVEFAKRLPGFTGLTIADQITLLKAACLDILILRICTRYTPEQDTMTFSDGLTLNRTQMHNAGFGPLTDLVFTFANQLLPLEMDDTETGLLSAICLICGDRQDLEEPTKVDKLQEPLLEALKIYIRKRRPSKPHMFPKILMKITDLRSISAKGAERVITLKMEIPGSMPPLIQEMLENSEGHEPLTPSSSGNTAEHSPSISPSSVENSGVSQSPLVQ
Put plainly: Transcriptional activation for RAR beta receptor.

Experiment [3] concerns the target T3, Retinoic acid receptor alpha (Homo sapiens, UniProt P10276).
T3 sequence (P10276 whole entry): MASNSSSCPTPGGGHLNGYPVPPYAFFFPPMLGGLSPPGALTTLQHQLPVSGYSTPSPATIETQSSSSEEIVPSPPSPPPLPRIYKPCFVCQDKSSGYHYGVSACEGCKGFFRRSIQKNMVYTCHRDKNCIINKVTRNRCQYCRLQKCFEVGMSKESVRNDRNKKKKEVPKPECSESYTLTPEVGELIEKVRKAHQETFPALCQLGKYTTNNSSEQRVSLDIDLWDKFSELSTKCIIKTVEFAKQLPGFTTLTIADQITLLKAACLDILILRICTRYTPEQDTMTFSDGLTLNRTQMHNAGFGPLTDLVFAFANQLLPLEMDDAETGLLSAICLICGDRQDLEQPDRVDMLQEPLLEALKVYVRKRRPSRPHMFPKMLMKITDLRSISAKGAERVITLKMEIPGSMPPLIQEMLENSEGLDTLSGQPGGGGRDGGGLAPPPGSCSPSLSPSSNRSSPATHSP
The experiment can be described thus: Transcriptional activation for RAR alpha receptor; not active (EC50>10e4 nM).

Experiment [4] deals with T4, Retinoic acid receptor RXR-alpha (Homo sapiens, UniProt P19793).
T4 sequence (P19793 whole entry): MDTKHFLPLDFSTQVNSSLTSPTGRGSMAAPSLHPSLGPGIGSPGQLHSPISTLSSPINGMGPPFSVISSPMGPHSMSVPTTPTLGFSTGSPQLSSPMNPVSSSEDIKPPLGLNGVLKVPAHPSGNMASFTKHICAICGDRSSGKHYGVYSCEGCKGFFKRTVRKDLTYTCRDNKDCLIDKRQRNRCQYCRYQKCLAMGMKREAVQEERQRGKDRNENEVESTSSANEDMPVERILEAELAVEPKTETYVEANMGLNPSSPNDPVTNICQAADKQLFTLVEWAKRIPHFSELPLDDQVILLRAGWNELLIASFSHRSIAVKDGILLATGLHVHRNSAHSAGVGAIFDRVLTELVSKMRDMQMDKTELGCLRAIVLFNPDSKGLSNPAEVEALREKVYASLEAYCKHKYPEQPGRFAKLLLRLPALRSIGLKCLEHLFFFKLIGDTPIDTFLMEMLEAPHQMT
The experiment can be described thus: Transcriptional activation for RXR alpha receptor.

Experiment [5] concerns the target T3, Retinoic acid receptor alpha. Put plainly: Transcriptional activation for RAR alpha receptor.
In experiment [6] the target is T4, Retinoic acid receptor RXR-alpha.
The target of experiment [7] is T1, Retinoic acid receptor gamma. The experiment can be described thus: Transcriptional activation for RAR gamma receptor; not active (EC50>10e4 nM).
For experiment [8], the target named is T2, Retinoic acid receptor beta. The experiment can be described thus: Transcriptional activation for RAR beta receptor; not active (EC50>10e4 nM).

Take `CCc1cc2c(cc1/C(C)=C/c1ccc(C(=O)O)cc1)C(C)(C)CCC2(C)C`: the EC50 is 195 nM in experiment [1], 961 nM in experiment [2], “Not Active” in experiment [3] and 2220 nM in experiment [4].

On to `C/C(=C\c1ccc2c(c1)C(C)(C)CCC2(C)C)c1ccc(C(=O)O)cc1`, for which the EC50 is 24 nM in experiment [5], 0.4 nM in experiment [1], 0.5 nM in experiment [2] and “Not Active” in experiment [6].

For `C/C(=C\c1ccc(C(=O)O)cc1)c1cc2c(cc1C)C(C)(C)CCC2(C)C`, the EC50 amounted to 4580 nM in experiment [5], 152 nM in experiment [1], 74 nM in experiment [2] and 385 nM in experiment [4].

Regarding `Cc1cc2c(cc1/C=C/c1ccc(C(=O)O)cc1)C(C)(C)CCC2(C)C`, the EC50 is 15 nM in experiment [5], 1.4 nM in experiment [1], 0.4 nM in experiment [2] and “Not Active” in experiment [6].

In the case of `CC1(C)CCC(C)(C)c2cc(/C=C/c3ccc(C(=O)O)cc3)ccc21`, the EC50 in experiment [5] is 11 nM; in experiment [1] it was 0.4 nM; in experiment [2], 0.4 nM; in experiment [6], “Not Active”.

As for `CC(=Cc1ccc(C(=O)O)cc1)c1cc2c(cc1C)C(C)(C)CCC2(C)C`, the EC50 entry in experiment [7] was “Not Active”; in experiment [8], “Not Active”; in experiment [3], “Not Active”; in experiment [4], above 6400 nM.

Consider `C/C(=C\c1ccc(C(=O)O)cc1)c1cc2c(cc1Br)C(C)(C)CCC2(C)C`, for which the EC50 was 989 nM in experiment [5], 91 nM in experiment [1], 21 nM in experiment [2] and 298 nM in experiment [4].

Take `C/C(=C\c1ccc(C(=O)O)cc1)c1cc2c(cc1Cl)C(C)(C)CCC2(C)C`: the EC50 in experiment [5] was above 1000 nM; in experiment [1], 77 nM; in experiment [2], 21 nM; in experiment [4], 275 nM.

Take `C/C(=C\c1ccc(C(=O)O)cc1)c1ccc2c(c1)C(C)(C)CCC2(C)C`: the EC50 result in experiment [6] was “Not Active”.
